From ChEMBL document CHEMBL3862033 (J Med Chem, 2016) come the findings set out here.

What is called inhibition is the change of the read-out against control, counted positive when it falls. The term Ki denotes a dissociation constant, usually derived from enzyme kinetics or from competition with a known ligand.

One assay deals with T1, 5-hydroxytryptamine receptor 1A (Homo sapiens) (UniProt P08908).
T1 sequence (whole entry): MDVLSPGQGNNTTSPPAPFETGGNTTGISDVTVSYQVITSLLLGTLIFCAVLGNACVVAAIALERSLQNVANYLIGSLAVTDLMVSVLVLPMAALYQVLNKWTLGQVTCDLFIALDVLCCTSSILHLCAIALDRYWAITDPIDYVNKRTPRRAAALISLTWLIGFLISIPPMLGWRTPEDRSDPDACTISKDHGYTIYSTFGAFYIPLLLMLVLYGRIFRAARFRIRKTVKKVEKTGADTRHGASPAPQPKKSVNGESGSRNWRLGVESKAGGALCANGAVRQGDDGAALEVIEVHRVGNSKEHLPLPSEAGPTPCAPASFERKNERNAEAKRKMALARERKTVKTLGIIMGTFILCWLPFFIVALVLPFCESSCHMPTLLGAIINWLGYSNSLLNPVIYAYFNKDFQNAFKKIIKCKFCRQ
Briefly: Displacement of [3H]WAY100635 from human 5-HT1AR expressed in CHO cell membranes at 10 uM incubated for 90 mins under dark condition by microbeta scintillation counting method relative to control.
Conditions: not given
On the technique in general: In a radioligand displacement assay an active substance lowers the binding of a labelled ligand.
Compound `CC(C)[C@H](Nc1nc(Cl)nc2c1ncn2[C@H]1[C@H](O)[C@H](O)[C@]2(CO)C[C@H]12)C1CC1` displayed an inhibition below 50%.

The target of the next assay is 5-hydroxytryptamine receptor 1B (Homo sapiens) (UniProt P28222). Briefly: Displacement of [3H]5-CT from human 5-HT1BR expressed in HEK cell membranes at 10 uM incubated for 90 mins under dark condition by microbeta scintillation counting method relative to control. To be noted: HEK293.
Chain of 5-hydroxytryptamine receptor 1B (Homo sapiens) (P28222 whole entry): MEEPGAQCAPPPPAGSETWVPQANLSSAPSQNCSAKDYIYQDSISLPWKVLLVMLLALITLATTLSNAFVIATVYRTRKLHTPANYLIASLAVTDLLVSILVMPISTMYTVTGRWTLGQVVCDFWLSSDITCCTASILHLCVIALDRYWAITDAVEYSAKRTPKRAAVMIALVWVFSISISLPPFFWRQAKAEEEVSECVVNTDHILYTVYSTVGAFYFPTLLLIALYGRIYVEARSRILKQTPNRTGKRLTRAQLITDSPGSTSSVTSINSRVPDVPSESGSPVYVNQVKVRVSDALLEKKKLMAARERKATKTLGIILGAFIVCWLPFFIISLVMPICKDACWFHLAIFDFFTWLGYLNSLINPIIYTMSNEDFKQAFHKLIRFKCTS
The compound `CC(C)[C@H](Nc1nc(Cl)nc2c1ncn2[C@H]1[C@H](O)[C@H](O)[C@]2(CO)C[C@H]12)C1CC1` came in with an inhibition below 50%.

For the next assay, the target named is 5-hydroxytryptamine receptor 1D (Homo sapiens) (UniProt P28221). Briefly: Displacement of [3H]5-CT from human 5-HT1D receptor expressed in HEK-T cell membranes at 10 uM incubated for 90 mins under dark condition by microbeta scintillation counting method relative to control.
Chain of 5-hydroxytryptamine receptor 1D (Homo sapiens) (P28221 whole entry): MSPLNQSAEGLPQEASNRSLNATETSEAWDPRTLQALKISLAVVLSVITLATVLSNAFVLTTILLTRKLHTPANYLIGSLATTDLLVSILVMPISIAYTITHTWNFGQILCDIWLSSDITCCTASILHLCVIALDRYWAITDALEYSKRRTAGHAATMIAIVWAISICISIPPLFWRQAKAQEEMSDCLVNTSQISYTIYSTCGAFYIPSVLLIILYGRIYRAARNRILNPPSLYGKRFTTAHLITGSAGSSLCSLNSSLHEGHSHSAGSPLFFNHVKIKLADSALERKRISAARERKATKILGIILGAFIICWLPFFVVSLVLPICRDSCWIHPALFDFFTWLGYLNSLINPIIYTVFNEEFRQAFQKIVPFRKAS
Conditions: not given
Regarding `CC(C)[C@H](Nc1nc(Cl)nc2c1ncn2[C@H]1[C@H](O)[C@H](O)[C@]2(CO)C[C@H]12)C1CC1`, the inhibition is below 50%.

The next assay deals with 5-hydroxytryptamine receptor 1E (Homo sapiens) (UniProt P28566). Briefly: Displacement of [3H]5-HT from human 5-HT1E receptor expressed in HEK cell membranes at 10 uM incubated for 90 mins under dark condition by microbeta scintillation counting method relative to control. To be noted: HEK293.
Chain of 5-hydroxytryptamine receptor 1E (Homo sapiens) (P28566 whole entry): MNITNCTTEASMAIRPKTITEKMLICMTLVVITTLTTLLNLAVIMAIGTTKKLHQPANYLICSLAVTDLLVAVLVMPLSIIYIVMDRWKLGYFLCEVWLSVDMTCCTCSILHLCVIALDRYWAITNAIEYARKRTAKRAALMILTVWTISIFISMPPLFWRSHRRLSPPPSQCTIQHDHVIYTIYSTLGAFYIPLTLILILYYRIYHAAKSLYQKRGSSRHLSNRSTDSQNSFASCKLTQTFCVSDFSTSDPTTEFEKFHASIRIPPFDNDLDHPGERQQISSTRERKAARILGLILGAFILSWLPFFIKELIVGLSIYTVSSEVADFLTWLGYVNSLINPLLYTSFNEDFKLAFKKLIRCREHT
The compound `CC(C)[C@H](Nc1nc(Cl)nc2c1ncn2[C@H]1[C@H](O)[C@H](O)[C@]2(CO)C[C@H]12)C1CC1` yielded an inhibition below 50%.

For a further assay, the target named is 5-hydroxytryptamine receptor 4 (Homo sapiens) (UniProt Q13639). The assay can be described thus: Displacement of [3H]GR113808 from human 5-HT4 receptor at 10 uM incubated for 90 mins under dark condition by microbeta scintillation counting method relative to control.
Chain of 5-hydroxytryptamine receptor 4 (Homo sapiens) (Q13639 whole entry): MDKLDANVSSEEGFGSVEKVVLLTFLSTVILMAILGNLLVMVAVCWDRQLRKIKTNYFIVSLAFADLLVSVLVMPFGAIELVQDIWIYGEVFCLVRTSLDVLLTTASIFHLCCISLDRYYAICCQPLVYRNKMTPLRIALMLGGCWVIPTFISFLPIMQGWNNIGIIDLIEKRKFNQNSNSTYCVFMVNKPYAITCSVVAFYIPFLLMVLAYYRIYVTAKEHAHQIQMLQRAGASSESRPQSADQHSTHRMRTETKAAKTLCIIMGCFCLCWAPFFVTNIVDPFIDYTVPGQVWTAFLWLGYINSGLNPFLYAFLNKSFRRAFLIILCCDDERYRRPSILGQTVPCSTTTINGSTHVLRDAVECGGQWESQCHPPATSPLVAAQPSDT
Conditions: not given
On to `CC(C)[C@H](Nc1nc(Cl)nc2c1ncn2[C@H]1[C@H](O)[C@H](O)[C@]2(CO)C[C@H]12)C1CC1`, for which the inhibition was below 50%.

For the next assay, the target named is 5-hydroxytryptamine receptor 6 (Homo sapiens) (UniProt P50406). The assay can be described thus: Displacement of [3H]LSD from human 5-HT6 receptor expressed in HEK cell membranes at 10 uM incubated for 90 mins under dark condition by microbeta scintillation counting method relative to control. To be noted: HEK293.
Chain of 5-hydroxytryptamine receptor 6 (Homo sapiens) (P50406 whole entry): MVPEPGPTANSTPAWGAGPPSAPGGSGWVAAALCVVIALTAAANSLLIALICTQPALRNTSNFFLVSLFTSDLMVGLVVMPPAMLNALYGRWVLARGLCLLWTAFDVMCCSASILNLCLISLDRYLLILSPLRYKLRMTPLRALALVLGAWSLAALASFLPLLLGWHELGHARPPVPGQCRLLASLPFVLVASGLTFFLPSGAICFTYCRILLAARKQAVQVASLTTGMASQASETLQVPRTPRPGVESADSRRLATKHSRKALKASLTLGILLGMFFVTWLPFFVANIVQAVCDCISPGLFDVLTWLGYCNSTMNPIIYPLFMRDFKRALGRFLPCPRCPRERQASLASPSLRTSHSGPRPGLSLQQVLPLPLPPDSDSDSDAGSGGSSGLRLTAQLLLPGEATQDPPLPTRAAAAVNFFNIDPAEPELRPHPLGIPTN
As for `CC(C)[C@H](Nc1nc(Cl)nc2c1ncn2[C@H]1[C@H](O)[C@H](O)[C@]2(CO)C[C@H]12)C1CC1`, the inhibition is below 50%.

The target of a further assay is 5-hydroxytryptamine receptor 7 (Homo sapiens) (UniProt P34969). The assay can be described thus: Displacement of [3H]LSD from human 5-HT7A receptor expressed in HEK cell membranes at 10 uM incubated for 90 mins under dark condition by microbeta scintillation counting method relative to control. To be noted: HEK293.
Chain of 5-hydroxytryptamine receptor 7 (Homo sapiens) (P34969 whole entry): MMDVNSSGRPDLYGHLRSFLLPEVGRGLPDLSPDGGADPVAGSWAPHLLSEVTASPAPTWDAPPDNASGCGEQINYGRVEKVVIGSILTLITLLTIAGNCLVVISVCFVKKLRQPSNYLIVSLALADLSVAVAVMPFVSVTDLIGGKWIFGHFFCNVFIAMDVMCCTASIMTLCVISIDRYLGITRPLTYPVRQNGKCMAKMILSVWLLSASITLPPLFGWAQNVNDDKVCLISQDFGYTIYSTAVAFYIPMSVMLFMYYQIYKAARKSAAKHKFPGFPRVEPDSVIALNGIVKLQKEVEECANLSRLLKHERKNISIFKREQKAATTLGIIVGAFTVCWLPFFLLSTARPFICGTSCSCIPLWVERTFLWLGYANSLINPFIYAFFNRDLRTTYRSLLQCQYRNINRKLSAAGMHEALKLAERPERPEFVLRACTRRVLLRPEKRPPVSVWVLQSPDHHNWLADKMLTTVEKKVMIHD
Regarding `CC(C)[C@H](Nc1nc(Cl)nc2c1ncn2[C@H]1[C@H](O)[C@H](O)[C@]2(CO)C[C@H]12)C1CC1`, the inhibition was below 50%.

Another assay has as its target T2, 5-hydroxytryptamine receptor 3A (Homo sapiens) (UniProt P46098).
T2 sequence (whole entry): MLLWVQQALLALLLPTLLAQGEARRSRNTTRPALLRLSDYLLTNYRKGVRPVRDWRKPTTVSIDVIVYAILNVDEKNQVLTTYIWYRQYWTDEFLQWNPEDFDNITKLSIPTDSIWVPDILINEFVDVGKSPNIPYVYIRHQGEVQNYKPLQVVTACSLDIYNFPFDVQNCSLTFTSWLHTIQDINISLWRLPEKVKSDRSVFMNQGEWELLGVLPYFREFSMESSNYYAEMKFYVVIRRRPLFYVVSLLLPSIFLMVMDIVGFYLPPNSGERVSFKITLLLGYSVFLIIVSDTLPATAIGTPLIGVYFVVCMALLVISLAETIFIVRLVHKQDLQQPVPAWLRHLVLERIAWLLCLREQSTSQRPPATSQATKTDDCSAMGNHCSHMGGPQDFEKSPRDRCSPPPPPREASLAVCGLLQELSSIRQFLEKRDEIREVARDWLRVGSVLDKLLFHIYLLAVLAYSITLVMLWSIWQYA
Briefly: Displacement of [3H]GR65630 from human 5-HT3 receptor expressed in HEK-T cell membranes at 10 uM incubated for 90 mins under dark condition by microbeta scintillation counting method relative to control.
Conditions: not given
Take `CC(C)[C@H](Nc1nc(Cl)nc2c1ncn2[C@H]1[C@H](O)[C@H](O)[C@]2(CO)C[C@H]12)C1CC1`: the inhibition was below 50%.

The target of a further assay is 5-hydroxytryptamine receptor 5A (Homo sapiens) (UniProt P47898). The assay can be described thus: Displacement of [3H]LSD from human 5-HT5A receptor expressed in Flp-In-CHO cell membranes incubated for 90 mins under dark condition by microbeta scintillation counting method relative to control. Further details: concentration or dose not given beside the values.
Chain of 5-hydroxytryptamine receptor 5A (Homo sapiens) (P47898 whole entry): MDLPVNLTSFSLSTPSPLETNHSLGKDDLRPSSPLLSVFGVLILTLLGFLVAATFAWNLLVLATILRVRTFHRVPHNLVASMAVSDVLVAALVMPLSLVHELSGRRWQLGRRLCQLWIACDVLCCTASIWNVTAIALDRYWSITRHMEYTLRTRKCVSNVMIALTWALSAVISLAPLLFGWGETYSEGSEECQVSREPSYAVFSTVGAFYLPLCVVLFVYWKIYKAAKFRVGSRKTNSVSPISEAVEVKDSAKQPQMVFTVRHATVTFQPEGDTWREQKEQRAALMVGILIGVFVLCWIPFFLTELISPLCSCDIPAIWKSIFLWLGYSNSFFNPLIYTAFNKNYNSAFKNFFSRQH
Conditions: not given
Turning to `CC(C)[C@H](Nc1nc(Cl)nc2c1ncn2[C@H]1[C@H](O)[C@H](O)[C@]2(CO)C[C@H]12)C1CC1`, the inhibition is below 50%.

Another assay deals with T3, 5-hydroxytryptamine receptor 2A (Homo sapiens, UniProt P28223). Briefly: Displacement of [3H]ketanserin from human 5-HT2A receptor expressed in HEK-T cell membranes at 10 uM incubated for 90 mins under dark condition by microbeta scintillation counting method relative to control.
T3 sequence (P28223 whole entry): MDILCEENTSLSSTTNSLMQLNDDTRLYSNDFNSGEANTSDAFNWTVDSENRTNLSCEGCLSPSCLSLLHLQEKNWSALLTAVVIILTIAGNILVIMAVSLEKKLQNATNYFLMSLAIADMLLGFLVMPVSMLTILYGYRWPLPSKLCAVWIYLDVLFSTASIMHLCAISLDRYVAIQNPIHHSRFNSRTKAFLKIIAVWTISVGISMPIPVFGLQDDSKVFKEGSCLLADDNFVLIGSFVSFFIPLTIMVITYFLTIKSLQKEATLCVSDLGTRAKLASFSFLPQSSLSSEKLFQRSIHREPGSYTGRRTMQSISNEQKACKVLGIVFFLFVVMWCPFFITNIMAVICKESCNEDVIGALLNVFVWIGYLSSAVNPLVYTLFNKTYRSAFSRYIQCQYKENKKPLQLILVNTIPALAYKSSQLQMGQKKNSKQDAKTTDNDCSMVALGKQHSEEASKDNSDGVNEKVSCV
Conditions: not given
In turn, `CC(C)[C@H](Nc1nc(Cl)nc2c1ncn2[C@H]1[C@H](O)[C@H](O)[C@]2(CO)C[C@H]12)C1CC1` yielded an inhibition below 10%.

The next assay concerns the target T4, 5-hydroxytryptamine receptor 2C (Homo sapiens, UniProt P28335).
T4 sequence (P28335 whole entry): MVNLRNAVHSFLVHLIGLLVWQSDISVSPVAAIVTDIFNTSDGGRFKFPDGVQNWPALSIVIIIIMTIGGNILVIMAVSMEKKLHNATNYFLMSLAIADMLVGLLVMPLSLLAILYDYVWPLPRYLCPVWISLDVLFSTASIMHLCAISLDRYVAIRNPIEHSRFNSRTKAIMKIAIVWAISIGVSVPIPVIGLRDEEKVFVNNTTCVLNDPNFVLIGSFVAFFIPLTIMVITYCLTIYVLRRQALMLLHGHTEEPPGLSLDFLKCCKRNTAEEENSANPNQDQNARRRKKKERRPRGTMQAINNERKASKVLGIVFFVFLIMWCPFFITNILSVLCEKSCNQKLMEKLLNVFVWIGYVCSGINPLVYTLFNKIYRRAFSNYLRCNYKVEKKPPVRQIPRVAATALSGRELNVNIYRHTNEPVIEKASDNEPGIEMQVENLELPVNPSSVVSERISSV
The assay can be described thus: Displacement of [3H]mesulergine from human 5-HT2CR expressed in Flp-In HEK cell membranes incubated for 90 mins under dark condition by microbeta scintillation counting method. Further details: species or system HEK293.
Conditions: not given
With `CC(C)[C@H](Nc1nc(Cl)nc2c1ncn2[C@H]1[C@H](O)[C@H](O)[C@]2(CO)C[C@H]12)C1CC1`, the Ki is 672 nM.

The target of another assay is T5, 5-hydroxytryptamine receptor 2C (Homo sapiens) (UniProt P28335).
T5 sequence (whole entry): T4 sequence (P28335 whole entry)
Briefly: Displacement of [3H]mesulergine from human 5-HT2CR expressed in Flp-In HEK cell membranes at 10 uM incubated for 90 mins under dark condition by microbeta scintillation counting method relative to control. To be noted: HEK293.
`CC(C)[C@H](Nc1nc(Cl)nc2c1ncn2[C@H]1[C@H](O)[C@H](O)[C@]2(CO)C[C@H]12)C1CC1` had an inhibition above 50%.

The target in another assay is T6, Adenosine receptor A1 (Homo sapiens, UniProt P30542).
T6 sequence (P30542 whole entry): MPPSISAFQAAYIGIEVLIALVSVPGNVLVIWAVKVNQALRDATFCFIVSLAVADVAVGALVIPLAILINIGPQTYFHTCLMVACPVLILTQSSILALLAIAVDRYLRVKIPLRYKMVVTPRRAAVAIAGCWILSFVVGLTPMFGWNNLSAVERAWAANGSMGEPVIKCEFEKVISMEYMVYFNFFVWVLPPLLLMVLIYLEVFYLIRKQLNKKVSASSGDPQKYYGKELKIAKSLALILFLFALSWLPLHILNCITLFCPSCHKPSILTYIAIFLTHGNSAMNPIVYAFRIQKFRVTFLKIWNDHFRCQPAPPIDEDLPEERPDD
The assay can be described thus: Displacement of [3H]N6-phenylisopropyladenosine from recombinant human A1AR expressed in CHO cell membranes after 60 mins by liquid scintillation counting method.
Conditions: not given
As to `CC(C)[C@H](Nc1nc(Cl)nc2c1ncn2[C@H]1[C@H](O)[C@H](O)[C@]2(CO)C[C@H]12)C1CC1`, the Ki is 104 nM.

The target in another assay is T7, Adenosine receptor A3 (Homo sapiens, UniProt P0DMS8).
T7 sequence (P0DMS8 whole entry): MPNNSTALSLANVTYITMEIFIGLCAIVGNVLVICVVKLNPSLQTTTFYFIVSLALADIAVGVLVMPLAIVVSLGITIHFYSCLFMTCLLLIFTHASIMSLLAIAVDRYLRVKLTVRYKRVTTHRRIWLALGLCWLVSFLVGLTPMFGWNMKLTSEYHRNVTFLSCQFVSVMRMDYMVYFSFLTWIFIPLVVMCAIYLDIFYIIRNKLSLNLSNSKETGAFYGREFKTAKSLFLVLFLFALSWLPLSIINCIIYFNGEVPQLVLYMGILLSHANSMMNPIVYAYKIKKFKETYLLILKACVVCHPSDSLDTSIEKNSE
The assay can be described thus: Displacement of [125l]N 6-(4-amino-3-iodobenzyl)adenosine-5'-N-methyluronamide from recombinant human A3AR expressed in CHO cell membranes after 60 mins by gamma counting method.
Conditions: not given
For the compound `CC(C)[C@H](Nc1nc(Cl)nc2c1ncn2[C@H]1[C@H](O)[C@H](O)[C@]2(CO)C[C@H]12)C1CC1`, the Ki was 3450 nM.

A further assay has as its target T3, 5-hydroxytryptamine receptor 2A. The assay can be described thus: Displacement of [3H]ketanserin from human 5-HT2A receptor expressed in HEK-T cell membranes incubated for 90 mins under dark condition by microbeta scintillation counting method.
Conditions: not given
`CC(C)[C@H](Nc1nc(Cl)nc2c1ncn2[C@H]1[C@H](O)[C@H](O)[C@]2(CO)C[C@H]12)C1CC1` displayed a Ki above 10000 nM.
